Laboratory results published in ChEMBL document CHEMBL5346962, “Discovery of Sulanemadlin (ALRN-6924), the First Cell-Permeating, Stabilized α-Helical Peptide in Clinical Development” (J Med Chem, 2023).
Bridge positions count the residues as written; N and C are the ends. Square brackets hold non-standard residues; d marks the D form. Peptide text beside a SMILES is read from it. R8 = C=CCCCCCC[C@@](C)(N)C(=O)O; S5 = C=CCCC[C@](C)(N)C(=O)O

Tested on: SJSA-1
Assay: Cytotoxicity against human SJSA-1 cells incubated for 72 hrs in presence of 10% FBS by MTT assay
Conditions: SJSA-1, 72 h

Structure (SMILES): CC(=O)N[C@@H](CC(C)C)C(=O)N[C@H](C(=O)N[C@@H](Cc1ccccc1)C(=O)N[C@]1(C)CCCCCC/C=C\CCC[C@@](C)(C(=O)N[C@@H](C)C(=O)N[C@@H](C)C(=O)N[C@@H](C)C(=O)O)NC(=O)[C@H](CC(C)C)NC(=O)[C@H](CCC(N)=O)NC(=O)[C@H](C)NC(=O)[C@H](Cc2c[nH]c3ccccc23)NC(=O)[C@H](Cc2ccc(O)cc2)NC(=O)[C@H](CCC(=O)O)NC1=O)[C@@H](C)O (Ac-LTF[R8]EYWAQL[S5]AAA-OH; staple (Z) 4-11)
- EC50: 2500 nM
